Measurements: article PMC8283790, “Inhibitory Effect of Puroindoline Peptides on Campylobacter jejuni Growth and Biofilm Formation” (Frontiers in Microbiology, 2021)
In brackets after ≈: the same amount, converted by molar mass. Where two headings read alike, the source gives them in different places. Where a SMILES comes first, the peptide text is derived from it.

How the values were obtained:
INT 407 cells [1] = assay: Lactate dehydrogenase (LDH) cytotoxicity assay; format: cell-based, human
Experimental: (§1) The toxicity of the puroindoline peptides was assessed using INT 407 epithelial cells (ATCC CCL-6) and SRBCs, as described below. The INT 407 cells (a derivative of HeLa cells) were cultured in Minimal Essential Medium (MEM) (Gibco, Grand Island, NY, United States) supplemented with 10% fetal bovine serum (FBS) and 1 mM sodium pyruvate at 37°C in humidified condition (5% CO2).
The cytotoxicity of puroindoline peptides on INT 407 cells was monitored using the lactate dehydrogenase (LDH) activity assay kit (Millipore Sigma, Danvers, MA, United States) following the manufacturer’s guidelines. LDH is released from damaged cells into the medium. Briefly, INT 407 cells were seeded into a 96 well plate at a density of 2.5 × 10^4 cells/well in 200 μL growth media (MEM supplemented by 10% FBS) and incubated for 24 h at 37°C in humidified (5% CO2) conditions. The next day, cells were rinsed twice with MEM without FBS, and different concentrations of peptides were added. Cells were incubated for 3 h, 6 h or 24 h at 37°C. As a positive control, 0.1% Triton X-100 was used. Media only was used as a negative control. In the presence of Triton X-100, cells release maximum LDH. After the appropriate incubation point, the tissue culture plate was centrifuged at 2000 rpm for 5 min. […] Absorbance was recorded at 450 nm (OD450) on a BioTek 96-well plate reader.

INT 407 cells [2] = assay: MTT cell viability assay; format: cell-based, human; conditions: for Concentration reducing cell viability (MTT, OD570): INT 407 cells, 24 h
Experimental: as §1
The viability of INT 407 cells was assessed by MTT assay according to the manufacturer’s recommendations (Roche Diagnostics, Mannheim, Germany). Briefly, INT 407 cells were seeded into a 96-well plate at a density of 2.5 × 10^4 cells/well in 200 μL of growth media (MEM supplemented by 10% FBS) and incubated for 24 h at 37°C under humidified conditions. Cells were rinsed twice with MEM without FBS, and different concentrations of peptides were added into the well. Triton X-100 was added as a positive control and growth medium only was added as a negative control. After treatment, the cells were incubated for different time points (3, 6, or 24 h) at 37°C in a humidified condition. At the end of each experiment, 100 μL of culture medium was removed into a new 96-well plate, and 25 μL of MTT stock solution was added into each well. The plates were incubated for 4 h at 37°C. Then, 100 μL of the solubilizing solution was added to each well, and the plate was incubated overnight at 37°C. After cooling, the plates were read at 570 nm (OD570) on a BioTek 96-well plate reader.

[3] = system: sheep red blood cells (SRBCs); assay: Hemolysis assay; format: cell-based; conditions: ~10^8 cells/mL, 60 min, 37°C, absorbance 540 nm; 100% = 1% Triton X-100
Experimental: The potential toxicity of the peptides was determined using a hemolysis assay. Briefly, SRBCs (Hardy Diagnostics, Santa Monica, CA, United States) were washed three times with 1× PBS. Aliquots containing approximately 10^8 cells/mL were incubated with different concentrations of the peptides for 60 min at 37°C in a 96-well tray. The plates were then centrifuged, and the absorbance of each supernatant was measured at 540 nm. Zero hemolysis (blank) and 100% hemolysis were determined in phosphate buffer and 1% Triton X-100, respectively.

blood = blood hemolysis assay; ref Jing et al. (2003); cited from earlier work
Description: (§2) The cytotoxicity and hemolytic activity of PinA has been addressed in this study using human epithelial INT 407 cells and SRBCs. INT 407 cells were chosen for this study as these cells grow rapidly and easy to maintain in culture media. INT 407 cells have been used extensively in C. jejuni research for several decades ([Negretti et al., 2019]). […] The first report on the cytotoxicity of puroindolines was from [Jing et al. (2003)], where th ...

red blood cells = conditions: ref Capparelli et al. (2007); cited from earlier work
Description: as §2

C. jejuni strain F38011 = assay: microbe, parasite or virus in culture; format: cell-based, Campylobacter jejuni; conditions: for MIC: CLSI broth microdilution, MH broth, ~5 × 10^4 bacteria/well, 37°C microaerobic
E. coli O157:H7 = format: cell-based, Escherichia coli; conditions: CLSI broth microdilution, MH broth, 37°C aerobic, 24 h, OD595
Experimental: (§3) C. jejuni clinical strains 81-176 and F38011 were cultured every 24 to 48 h on Mueller-Hinton (MH) agar containing 5% citrated bovine blood (MH-blood agar) or in MH broth in a shaking orbital incubator with microaerobic conditions (5% O2, 10% CO2, 85% N2) at 37°C. The generic isolates of E. coli O157:H7, L. monocytogenes, and Salmonella enterica serovar Typhimurium (S. Typhimurium) were cultured on LB agar plates in an aerobic chamber at 37°C, and methicillin-resistant S. aureus (MRSA) were cultured on an MH-blood agar plate in an aerobic chamber at 37°C.
(§4) Two-fold serial dilutions were made. The bacterial cultures were grown overnight in MH broth under the appropriate conditions, pelleted by centrifugation, and suspended in MH broth at 5 × 10^6 CFU/mL. Ten microliters of bacterial suspension (∼5 × 10^4 bacteria) was used to inoculate every well except the media control wells in 96-well microtiter plate. The plate was incubated in an orbital shaker at 37°C in a microaerobic condition for 48 h for C. jejuni strains or in aerobic conditions for 24 h for other bacteria. After incubation, the optical density was determined using a 96-well plate reader (BioTek Instruments Inc., Winooski, VT, United States) at 595 nm (OD595). […] The dose-response curves were created by log-transforming the OD595 readings. […]

S. Typhimurium = format: cell-based, Salmonella enterica serovar Typhimurium; conditions: CLSI broth microdilution, MH broth, 37°C aerobic, 24 h, OD595
Experimental: as §3, §4

MRSA = format: cell-based, Staphylococcus aureus; conditions: CLSI broth microdilution, MH broth, 37°C aerobic, 24 h, OD595
Experimental: as §3, §4

L. monocytogenes = format: cell-based, Listeria monocytogenes; conditions: CLSI broth microdilution, MH broth, 37°C aerobic, 24 h, OD595
Experimental: as §3, §4

C. jejuni strain 81-176 [4] = conditions: C. jejuni 81-176, 48 h; for MIC: CLSI broth microdilution, MH broth, ~5 × 10^4 bacteria/well, 37°C microaerobic, OD595
[5] = Solubility of the synthetic peptides; format: physicochemical; conditions: DMSO and water
C. jejuni 81-176 biofilm = assay: Biofilm formation, crystal violet staining; format: cell-based, Campylobacter jejuni; conditions: inoculum OD540 0.1, 72 h, 37°C microaerobic, no agitation
C. jejuni strain 81-176 [6] = assay: microbe, parasite or virus in culture

Compound	Concentration reducing cell viability (MTT, OD570) (INT 407 cells [2]) [µg/mL]	Concentration showing hemolysis of SRBCs [3] [µg/mL]	Concentration up to which no hemolytic activity was identified (blood) [µg/mL]	Concentration up to which no hemolytic activity was displayed (red blood cells) [µg/mL]	MIC (C. jejuni strain F38011; 48 h, OD595) [µg/mL]	MIC (E. coli O157:H7) [µg/mL]	MIC (S. Typhimurium) [µg/mL]	MIC (MRSA) [µg/mL]	MIC (L. monocytogenes) [µg/mL]	MIC (C. jejuni strain 81-176 [4]) [µg/mL]	other results
CSCC[C@H](NC(=O)[C@@H](N)[C@@H](C)O)C(=O)N[C@@H](CCCCN)C(=O)N[C@@H](CC(=O)O)C(=O)N[C@@H](Cc1ccccc1)C(=O)N1CCC[C@H]1C(=O)N[C@H](C(=O)N[C@H](C(=O)N[C@@H](Cc1c[nH]c2ccccc12)C(=O)N[C@@H](CCCNC(=N)N)C(=O)N[C@@H](Cc1c[nH]c2ccccc12)C(=O)N[C@@H](Cc1c[nH]c2ccccc12)C(=O)N[C@@H](CCCCN)C(=O)N[C@@H](Cc1c[nH]c2ccccc12)C(=O)N[C@@H](Cc1c[nH]c2ccccc12)C(=O)N[C@@H](CCCCN)C(=O)NCC(=O)NCC(=O)O)[C@@H](C)O)C(C)C [PinA] (H-TMKDFPVTWRWWKWWKGG-OH)	256	≥ 256	1000	150	–	–	–	–	–	–	Cytotoxicity (LDH release), in words (INT 407 cells [1]; INT 407 cells, 3, 6 and 24 h, MEM without FBS, Triton X-100 at 0.1%): cytotoxic to INT 407 cells at higher concentrations
CSCC[C@H](NC(=O)[C@@H](N)[C@@H](C)O)C(=O)N[C@@H](CCCCN)C(=O)N[C@@H](CC(=O)O)C(=O)N[C@@H](Cc1ccccc1)C(=O)N1CCC[C@H]1C(=O)N[C@H](C(=O)N[C@H](C(=O)N[C@@H](Cc1c[nH]c2ccccc12)C(=O)N1CCC[C@H]1C(=O)N[C@H](C(=O)NCC(=O)N[C@@H](Cc1c[nH]c2ccccc12)C(=O)N[C@@H](Cc1c[nH]c2ccccc12)C(=O)NCC(=O)NCC(=O)NCC(=O)O)[C@@H](C)O)[C@@H](C)O)C(C)C [PinB mutant] (H-TMKDFPVTWPTGWWGGG-OH)	–	≥ 256	–	–	>512	>512	>512	>512	>512	>512	–
CSCC[C@H](NC(=O)[C@@H](N)[C@@H](C)O)C(=O)N[C@@H](CCCCN)C(=O)N[C@@H](CC(=O)O)C(=O)N[C@@H](Cc1ccccc1)C(=O)N1CCC[C@H]1C(=O)N[C@H](C(=O)N[C@H](C(=O)N[C@@H](Cc1c[nH]c2ccccc12)C(=O)N[C@@H](CCCNC(=N)N)C(=O)N[C@@H](Cc1c[nH]c2ccccc12)C(=O)NCC(=O)N[C@@H](CCCCN)C(=O)N[C@@H](Cc1c[nH]c2ccccc12)C(=O)NCC(=O)N[C@@H](CCCCN)C(=O)NCC(=O)NCC(=O)O)[C@@H](C)O)C(C)C [PinA mutant] (H-TMKDFPVTWRWGKWGKGG-OH)	–	≥ 256	–	–	>512	>512	>512	>512	>512	>512	–
CSCC[C@H](NC(=O)[C@@H](N)[C@@H](C)O)C(=O)N[C@@H](CCCCN)C(=O)N[C@@H](CC(=O)O)C(=O)N[C@@H](Cc1ccccc1)C(=O)N1CCC[C@H]1C(=O)N[C@H](C(=O)N[C@H](C(=O)N[C@@H](Cc1c[nH]c2ccccc12)C(=O)N1CCC[C@H]1C(=O)N[C@H](C(=O)N[C@@H](CCCCN)C(=O)N[C@@H](Cc1c[nH]c2ccccc12)C(=O)N[C@@H](Cc1c[nH]c2ccccc12)C(=O)N[C@@H](CCCCN)C(=O)NCC(=O)NCC(=O)O)[C@@H](C)O)[C@@H](C)O)C(C)C [PinB] (H-TMKDFPVTWPTKWWKGG-OH)	> 512	≥ 256	1000	50	–	–	–	–	–	–	Concentration showing cytotoxicity (LDH release) (INT 407 cells [1]; INT 407 cells, any time point (3, 6, 24 h)): > 512 µg/mL; Solubility (in words) [5]: soluble in DMSO, an organic solvent, but not in water
Triton X-100 [reference compound]	–	–	–	–	–	–	–	–	–	–	Cell viability (MTT, OD570), in words (INT 407 cells [2]): very low absorbance at OD570
CC[C@H]1OC(=O)[C@H](C)[C@@H](O[C@H]2C[C@@](C)(OC)[C@@H](O)[C@H](C)O2)[C@H](C)[C@@H](O[C@@H]2O[C@H](C)C[C@H](N(C)C)[C@H]2O)[C@](C)(O)C[C@@H](C)C(=O)[C@H](C)[C@@H](O)[C@]1(C)O [erythromycin]	–	–	–	–	–	–	–	–	–	–	MIC (C. jejuni strain F38011; Campylobacter jejuni, 48 h, OD595, read-out: MIC): 0.188 µg/mL (≈ 0.255 µM); IC50 (C. jejuni strain F38011; Campylobacter jejuni, read-out: IC50 (concentration at which 50% of bacteria is inhibited), broth microdilution, 48 h, ten concentration points, min. three biological replicates): 0.0405 µg/mL (≈ 0.0552 µM); IC90 (C. jejuni strain F38011; Campylobacter jejuni, read-out: IC90 (90% of maximal inhibitory concentration), from slope of concentration-effect curve, 48 h): 0.0657 µg/mL (≈ 0.0895 µM); MBC (C. jejuni strain F38011; Campylobacter jejuni, wells spotted on MH agar, 24–48 h, no growth (>99.9% reduction)): 0.25 µg/mL (≈ 0.341 µM); IC10 (10% of maximal inhibitory concentration) (C. jejuni strain F38011; from slope of concentration-effect curve, 48 h): 0.0249 µg/mL; Concentration inhibiting biofilm formation (C. jejuni 81-176 biofilm): ≥ 0.25 µg/mL; IC10 (10% of maximal inhibitory concentration) (C. jejuni strain 81-176 [4]; from slope of concentration-effect curve): 0.0254 µg/mL; MBC (C. jejuni strain 81-176 [6]; Campylobacter jejuni, 81176): 0.125 µg/mL (≈ 0.17 µM); MIC (C. jejuni strain 81-176 [6]; Campylobacter jejuni, 81176, 48 h): 0.125 µg/mL (≈ 0.17 µM); IC50 (C. jejuni strain 81-176 [6]; Campylobacter jejuni, 81176, 48 h, read-out: IC50 (concentration at which 50% of bacteria is inhibited)): 0.0415 µg/mL (≈ 0.0565 µM); IC90 (C. jejuni strain 81-176 [6]; Campylobacter jejuni, 81176, 48 h, read-out: IC90 (90% of maximal inhibitory concentration)): 0.0677 µg/mL (≈ 0.0922 µM)
